One experiment deals with IMPDH. Put plainly: Insulin-stimulated 32P phosphorylation of IMPDH. Type of experiment: cell-based. Here is the method: (§1) 3T3-L1 cells, CHO.IR cells (46) and fibroblast cells derived from vimentin null (Vim^−/−) mice were cultured as described (28, 47). Human preadipocytes were cultured and differentiated as described (47). Transfections were performed using Lipofectamine. Cells were serum starved for at least 2 h before treatment with insulin (1 μM, 15 min) or pre-treatment with wortmannin (100 nM, 25 min), LY294002 (50 μM, 10 min) or C2-ceramide (100 μM, 2 h) followed by insulin or oleate. To induce lipid body accumulation cells were cultured in regular growth medium supplemented with 200 μM oleate complexed to fatty acid free bovine serum albumin (BSA) in a 6:1 molar ratio. Mycophenolic acid (MPA) was dissolved in methanol to give a stock solution of 30 mM. This was further diluted in methanol, prior to direct addition to the culture media such that the final concentration of methanol was always 0.1%. Guanosine was dissolved in DMSO to give a stock solution of 100 mM. This was further diluted in DMSO, prior to direct addition to the culture media such that the final concentration of DMSO was always 0.33%. Media was refreshed, with addition of fresh MPA, guanosine, or vehicle, every 3 days as appropriate. […] Samples were subjected to SDS-PAGE and analysed by immunoblotting and autoradiography. […]

Another experiment concerns Akt. Nature of the experiment: Akt phosphorylation (immunoblotting). It counts as cell-based. To be noted: C2-ceramide; data not shown. The procedure:
(§2) 3T3-L1 cells, CHO.IR cells (46) and fibroblast cells derived from vimentin null (Vim^−/−) mice were cultured as described (28, 47). Human preadipocytes were cultured and differentiated as described (47). Transfections were performed using Lipofectamine. Cells were serum starved for at least 2 h before treatment with insulin (1 μM, 15 min) or pre-treatment with wortmannin (100 nM, 25 min), LY294002 (50 μM, 10 min) or C2-ceramide (100 μM, 2 h) followed by insulin or oleate. To induce lipid body accumulation cells were cultured in regular growth medium supplemented with 200 μM oleate complexed to fatty acid free bovine serum albumin (BSA) in a 6:1 molar ratio. Mycophenolic acid (MPA) was dissolved in methanol to give a stock solution of 30 mM. This was further diluted in methanol, prior to direct addition to the culture media such that the final concentration of methanol was always 0.1%. Guanosine was dissolved in DMSO to give a stock solution of 100 mM. […]
For western blotting, following appropriate treatment, cells were harvested in lysis buffer (50 mM HEPES (pH 7.4), 150 mM NaCl, 1% Triton-X-100, 1 mM Na3VO4, 30 mM NaF, 10 mM Na4P2O7, 10 mM EDTA, 1 μg/ml aprotinin, 1 μg/ml leupeptin, 2 mM PMSF) and clarified by centrifugation (2,000×g for 10 min). Protein concentration was determined using the BCA assay. […]
On the technique in general: Immunoblotting shows a protein as a band on a membrane.

A further experiment has as its system CHO.IR cells. Put plainly: Oleate-induced lipid accumulation, Oil red-O staining. To be noted: LY294002 + 200 μM oleate, 5 h. Type of experiment: cell-based, Chinese hamster. The procedure:
as §1, with “(Vim^-/-)” for “(Vim^−/−)”, “Quantification of lipids was determined by measuring Oil red-O staining at […]. Protein concentration was determined in parallel and values” for “Samples”, “normalised” for “subjected”, “protein.” for “SDS-PAGE and analysed by immunoblotting and autoradiography.”

Experiment [1] relates to 3T3-L1 preadipocytes. Nature of the experiment: Adipogenesis of 3T3-L1 preadipocytes (lipid accumulation, G3PDH activity, protein). It counts as cell-based, murine. The procedure:
(§3) 3T3-L1 cells, CHO.IR cells (46) and fibroblast cells derived from vimentin null (Vim^−/−) mice were cultured as described (28, 47). Human preadipocytes were cultured and differentiated as described (47). Transfections were performed using Lipofectamine. Cells were serum starved for at least 2 h before treatment with insulin (1 μM, 15 min) or pre-treatment with wortmannin (100 nM, 25 min), LY294002 (50 μM, 10 min) or C2-ceramide (100 μM, 2 h) followed by insulin or oleate. To induce lipid body accumulation cells were cultured in regular growth medium supplemented with 200 μM oleate complexed to fatty acid free bovine serum albumin (BSA) in a 6:1 molar ratio. Mycophenolic acid (MPA) was dissolved in methanol to give a stock solution of 30 mM. This was further diluted in methanol, prior to direct addition to the culture media such that the final concentration of methanol was always 0.1%. Guanosine was dissolved in DMSO to give a stock solution of 100 mM. This was further diluted in DMSO, prior to direct addition to the culture media such that the final concentration of DMSO was always 0.33%. Media was refreshed, with addition of fresh MPA, guanosine, or vehicle, every 3 days as appropriate. Cells were washed in ice cold PBS (pH 7.4) and harvested in 1 ml of ice-cold 50 mM Tris (pH 7.5) containing 1 mM EDTA and 500 μM DTT. Cells were disrupted by sonication and centrifuged at 12000 g for 15 min at 4° C. Before assay, 5 μl of 100 mM DTT was added. The supernatant was then assayed for G3PDH activity in a final concentration of 100 mM triethanolamine-HCl (pH 7.5), 2.5 mM EDTA, 0.24 mM NADH, 50 μM DTT and 0.4 mM dihydroxyacetone phosphate (DAP). The reaction was initiated by addition of DAP and the rate of change in A340 was measured using a FLUOstar Optimem spectrophotometer (BMG labtech, Victoria Australia). Each of three culture wells was assayed in duplicate with a reagent blank containing distilled water instead of substrate (DAP). An aliquot of the supernatant was assayed to determine protein concentration.

Another experiment has as its system 3T3-L1 cells. Put plainly: Western blotting of adipogenic transcription factors and IMPDH in differentiating 3T3-L1 cells. It counts as cell-based, murine. The procedure: 3T3-L1 cells, CHO.IR cells (46) and fibroblast cells derived from vimentin null (Vim^−/−) mice were cultured as described (28, 47). Human preadipocytes were cultured and differentiated as described (47). Transfections were performed using Lipofectamine. Cells were serum starved for at least 2 h before treatment with insulin (1 μM, 15 min) or pre-treatment with wortmannin (100 nM, 25 min), LY294002 (50 μM, 10 min) or C2-ceramide (100 μM, 2 h) followed by insulin or oleate. To induce lipid body accumulation cells were cultured in regular growth medium supplemented with 200 μM oleate complexed to fatty acid free bovine serum albumin (BSA) in a 6:1 molar ratio. Mycophenolic acid (MPA) was dissolved in methanol to give a stock solution of 30 mM. This was further diluted in methanol, prior to direct addition to the culture media such that the final concentration of methanol was always 0.1%. Guanosine was dissolved in DMSO to give a stock solution of 100 mM. This was further diluted in DMSO, prior to direct addition to the culture media such that the final concentration of DMSO was always 0.33%. Media was refreshed, with addition of fresh MPA, guanosine, or vehicle, every 3 days as appropriate.
For western blotting, following appropriate treatment, cells were harvested in lysis buffer (50 mM HEPES (pH 7.4), 150 mM NaCl, 1% Triton-X-100, 1 mM Na3VO4, 30 mM NaF, 10 mM Na4P2O7, 10 mM EDTA, 1 μg/ml aprotinin, 1 μg/ml leupeptin, 2 mM PMSF) and clarified by centrifugation (2,000×g for 10 min). Protein concentration was determined using the BCA assay. Equal protein was subjected to SDS-PAGE and immunoblotting and visualized by autoradiography (using enhanced chemiluminescence) or fluorescent analysis using the L1-Cor Odyssey system.

Experiment [2] concerns 3T3-L1 preadipocytes. Nature of the experiment: Clonal expansion / cell number of differentiating 3T3-L1 cells (Syto60). Type of experiment: cell-based, murine. Here is the method: as §2
Essentially Syto60 staining was used to determine cell number following the manufacturers protocol. […] Finally, wells were aspirated and Syto60 staining was detected and quantitated using the LI-COR Odyssey Infrared Imaging System. DAPI was detected by fluorescence microscopy and was used to validate the Syto60 data in preliminary experiments.

In experiment [3] the test system is primary human preadipocytes. Nature of the experiment: Adipogenesis of primary human preadipocytes (lipid accumulation, G3PDH activity). Type of experiment: cell-based. The procedure:
as §3

By IC50 is commonly meant the point on the concentration scale where inhibition reaches its midpoint.

Molecules are shown by their SMILES. “Also recorded” adds a separate entry of the source.

In the case of `CCCCCCCCCCCCC/C=C/[C@@H](O)[C@H](CO)NC(C)=O` [C2-ceramide], in the experiment on IMPDH (C2-ceramide 100 μM, 2 h), the “insulin-stimulated IMPDH phosphorylation” value is “without effect”. Moreover, in the experiment with Akt, the “reduction of insulin-stimulated Akt phosphorylation” value is on record as 70%.
For `COc1ccc2c(c1)c(C1=C(c3c[nH]c4ccccc34)C(=O)NC1=O)cn2CCCN(C)C` [Gö6983], the “role of the inhibited kinase (atypical PKCs; mTOR and p70S6 kinase) in insulin-stimulated IMPDH phosphorylation” value in the experiment on IMPDH (Gö6983 1 μM, rapamycin 22 nM, data not shown) was “eliminated”.
In the case of `O=c1cc(N2CCOCC2)oc2c(-c3ccccc3)cccc12` [LY294002], the “reduction of oleate-induced lipid accumulation (Oil red-O)” value in the experiment on CHO.IR cells is reported as “approximately 50%”.
With `COc1c(C)c2c(c(O)c1C/C=C(\C)CCC(=O)O)C(=O)OC2` [MPA, mycophenolic acid], in the experiment with 3T3-L1 preadipocytes [1] (1 μM MPA), the “lipid accumulation (determined morphologically)” value was “blocks lipid accumulation; also recorded: reduced lipid accumulation; also recorded: inhibited lipid accumulation”. In the experiment with 3T3-L1 preadipocytes [1] (1 μM MPA, day 8), the G3PDH activity entry is on record as “decreased G3PDH activity”. Further, the differentiation entry with 3T3-L1 preadipocytes [1] (MPA for 6 days (0-6)) was “block differentiation completely”. Besides, the “lipid accumulation and G3PDH activity” value with 3T3-L1 preadipocytes [1] (MPA for the first 3 days (0-3) or the second 3 days (3-6) of differentiation) is “reduced lipid accumulation and G3PDH activity”. For the same compound, the half-maximal inhibitory concentration (IC50) in the experiment with 3T3-L1 preadipocytes [1] (Mus musculus, 3T3-L1, increasing MPA for the first 6 days of differentiation, harvested day 8, read-out: IC50 for inhibition of differentiation (G3PDH activity and protein levels)) lay within 100 to 200 nM. Also, the IMPDH expression entry in the experiment with 3T3-L1 cells (1 μM MPA) is given as “promotes increased IMPDH expression; also recorded: promoted an increase in IMPDH expression”. In the experiment on 3T3-L1 cells (1 μM MPA, harvested at day 3), the “expression of adipogenic transcription factors CEBPα, CEBPβ, PPARγ” value was “blocks expression of CEBPα, but not CEBPβ or PPARγ; also recorded: induction of expression of the adipogenic transcription factors CEBPβ and PPARγ, but not CEBPα, was apparent”. Moreover, the proliferation/clonal expansion result with 3T3-L1 preadipocytes [2] (1 μM MPA, first 3 days of differentiation) is reported as “blocks proliferation/clonal expansion; also recorded: blocked clonal expansion”. Also, in experiment [3] (1 μM MPA), the “induction of G3PDH activity” value is on record as “reduced”; the lipid accumulation entry is “reduced lipid accumulation and expression of G3PDH activity”.
For `Nc1nc2c(ncn2[C@@H]2O[C@H](CO)[C@@H](O)[C@H]2O)c(=O)[nH]1` [guanosine], the “lipid accumulation and G3PDH activity in MPA-treated cells” value in the experiment on 3T3-L1 preadipocytes [1] (60 μM guanosine + 1 μM MPA) was “reversed the effects of MPA treatment; also recorded: restored lipid accumulation”. Further, the “effects of MPA treatment on lipid accumulation and G3PDH activity” value in the experiment with 3T3-L1 preadipocytes [1] (300 μM guanosine + 1 μM MPA) is recorded as “still able to reverse the effects of MPA treatment to some extent”. Besides, the “lipid accumulation and adipogenesis” value in the experiment on 3T3-L1 preadipocytes [1] (300 μM guanosine alone) was “reduced adipogenesis; also recorded: inhibited lipid accumulation and adipogenesis”. For the same compound, the “MPA-induced increase in IMPDH expression” value with 3T3-L1 cells (co-treatment with guanosine) was “Reversal of MPA induced increase in IMPDH expression; also recorded: prevented by co-treatment with guanosine”. Further, the “MPA inhibition of clonal expansion/proliferation” value in the experiment with 3T3-L1 preadipocytes [2] (60 μM guanosine co-treatment with MPA) is “Reversal of effects of MPA on clonal expansion; also recorded: reversed the inhibition of proliferation by MPA”. The “induction of G3PDH activity / differentiation” value in experiment [3] (60 μM guanosine) is on record as “reduced induction of G3PDH activity; also recorded: inhibited differentiation”.

(Values after US7915255B2, “Metabolism-modulating agents and uses therefor” (Verva Pharmaceuticals Pty Ltd, priority 2004, dated 2011).)
